Laboratory results: patent US8686075B2, “Polysulfone compositions and methods for the manufacture and use thereof” (SABIC Innovative Plastics IP B.V., priority 2011, dated 2014)

Tests used:
[1] = molecular target: recombinant human estradiol receptors (rhER) beta 1 (β1) (Homo sapiens, UniProt Q92731); assay: competitive binding assay, displacement of [3H] estradiol radioligand from rhER beta 1; settings: tested up to 2.5×E-4 M
[2] = molecular target: T1, recombinant human estradiol receptors (rhER) alpha (α) (Homo sapiens, UniProt P03372); assay: competitive binding assay, displacement of [3H] estradiol radioligand from rhER alpha; settings: text statements, tested up to 2.5×E-4 M
T1 sequence (P03372 1-595): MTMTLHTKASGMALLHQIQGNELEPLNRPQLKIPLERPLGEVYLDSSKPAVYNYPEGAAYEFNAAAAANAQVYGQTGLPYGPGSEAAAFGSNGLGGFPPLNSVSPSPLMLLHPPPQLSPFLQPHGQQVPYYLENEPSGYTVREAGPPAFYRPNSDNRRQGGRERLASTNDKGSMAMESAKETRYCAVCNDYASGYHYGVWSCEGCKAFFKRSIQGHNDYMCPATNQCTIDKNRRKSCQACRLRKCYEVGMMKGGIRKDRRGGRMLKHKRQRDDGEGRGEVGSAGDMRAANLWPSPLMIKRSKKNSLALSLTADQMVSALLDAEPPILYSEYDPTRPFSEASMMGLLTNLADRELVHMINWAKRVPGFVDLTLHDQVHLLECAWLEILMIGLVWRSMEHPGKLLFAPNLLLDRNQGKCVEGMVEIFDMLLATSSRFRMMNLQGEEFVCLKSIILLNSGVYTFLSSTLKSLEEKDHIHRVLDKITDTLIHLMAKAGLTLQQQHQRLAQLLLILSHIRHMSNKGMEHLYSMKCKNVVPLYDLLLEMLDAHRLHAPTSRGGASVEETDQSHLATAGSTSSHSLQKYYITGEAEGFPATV

Dihydroxy Diphenyl Ether [Example C, reference compound]
estradiol binding / displacement at the beta estradiol receptor (in words) ([1]; text statements): displace estradiol at low concentrations

O=C1OC(c2ccc(O)cc2)(c2ccc(O)cc2)c2ccccc21 [O, Phenolphthalein, reference compound]
estradiol binding / displacement at the beta estradiol receptor (in words) ([1]; text statements): estradiol displacement at low concentration

Oc1cccc(O)c1 [Example 4, Resorcinol]
estradiol binding / displacement at the alpha estradiol receptor (in words) [2]: no detectible estradiol displacement
estradiol binding / displacement at the alpha estradiol receptor (in words) ([2]; listed as resorcinol): no estradiol binding
estradiol binding / displacement at the beta estradiol receptor (in words) ([1]; text statements): no detectible estradiol displacement
estradiol binding / displacement at the beta estradiol receptor (in words) ([1]; text statements, listed as resorcinol): no estradiol binding

Biphenol [Example 6]
estradiol binding / displacement at the alpha estradiol receptor (in words) [2]: no displacement of the estradiol
estradiol binding / displacement at the alpha estradiol receptor (in words) ([2]; listed as biphenol): no estradiol binding
estradiol binding / displacement at the beta estradiol receptor (in words) ([1]; text statements): no estradiol binding

Tetra Methyl BPA [Example 1]
estradiol binding / displacement at the beta estradiol receptor (in words) ([1]; listed as tetra methyl bisphenol-A): no estradiol binding
estradiol binding / displacement at the beta estradiol receptor (in words) ([1]; text statements): no detectible estradiol displacement

Fluorenone Bis-o-Cresol [reference compound]
estradiol binding / displacement at the beta estradiol receptor (in words) ([1]; text statements): displace estradiol at low concentrations

CC(C)(c1ccccc1)c1ccc(O)cc1 [B, p-Cumyl Phenol, reference compound]
estradiol binding / displacement at the alpha estradiol receptor (in words) [2]: displace estradiol at low concentrations
estradiol binding / displacement at the beta estradiol receptor (in words) ([1]; text statements): displace estradiol at low concentrations

Bis Hydroxy Phenyl Menthane [reference compound]
estradiol binding / displacement at the alpha estradiol receptor (in words) [2]: displace estradiol at low concentrations
estradiol binding / displacement at the beta estradiol receptor (in words) ([1]; text statements): displace estradiol at low concentrations

Cc1cc(C2(c3ccc(O)c(C)c3)CCCCC2)ccc1O [G, Dimethyl Cyclohexyl Bisphenol, reference compound]
estradiol binding / displacement at the alpha estradiol receptor (in words) [2]: displace estradiol at low concentrations
estradiol binding / displacement at the beta estradiol receptor (in words) ([1]; text statements): displace estradiol at low concentrations

O=C1c2ccccc2C(c2ccc(O)cc2)(c2ccc(O)cc2)N1c1ccccc1 [Example 3, N-Phenyl Phenolphthalein Bisphenol]
estradiol binding / displacement at the alpha estradiol receptor (in words) [2]: no detectible estradiol displacement
estradiol binding / displacement at the alpha estradiol receptor (in words) ([2]; listed as N-phenyl phenolphthalein bisphenol): no estradiol binding
estradiol binding / displacement at the beta estradiol receptor (in words) ([1]; text statements): no detectible estradiol displacement
estradiol binding / displacement at the beta estradiol receptor (in words) ([1]; text statements, listed as N-phenyl phenolphthalein bisphenol): no estradiol binding

Diphenolic Acid Methyl Ester [F, reference compound]
estradiol binding / displacement at the alpha estradiol receptor (in words) [2]: displace estradiol at low concentrations
estradiol binding / displacement at the beta estradiol receptor (in words) ([1]; text statements): displace estradiol at low concentrations

Cc1cc(O)ccc1O [Example 8, Methyl Hydroquinone]
estradiol binding / displacement at the beta estradiol receptor (in words) ([1]; text statements): no alpha or beta estradiol displacement
estradiol binding / displacement at the beta estradiol receptor (in words) ([1]; text statements, listed as methyl hydroquinone): no estradiol binding

CC(C)(c1ccc(O)cc1)c1cccc(C(C)(C)c2ccc(O)cc2)c1 [K, Bisphenol M, reference compound]
estradiol binding / displacement at the alpha estradiol receptor (in words) [2]: displace estradiol at low concentrations
estradiol binding / displacement at the beta estradiol receptor (in words) ([1]; text statements): displace estradiol at low concentrations

Bisphenol Acetophenone [D, reference compound]
estradiol binding / displacement at the alpha estradiol receptor (in words) [2]: displace estradiol at low concentrations
